Drawing on the Bradley open melting point set (2014), this text covers melting point for 89 compounds.

Molecules are shown by their SMILES. Several values for one entry are separate records, joined by “and”; a condition that tells them apart may be missing. Equal entries are not always repeated.

Usually melting point stands for the temperature, or range, at which the solid turns liquid. For `C=CCOc1ccc(CC(=O)O)cc1Cl` [alclofenac], the melting point came to 92.5 °C.

The compound `C=CCC1(c2ccccc2)C(=O)NC(=O)NC1=O` [5-allyl-5-phenylbarbiturate] had a melting point of 158 °C.

`CCB(O)O` [ethylboronic acid] came in with a melting point of 86 °C.

Turning to `CCOC(=O)c1cccc(B(O)O)c1` [3-(ethoxycarbonyl)benzeneboronic acid], the melting point turned out to be 137 °C.

Compound `N[C@@H](Cc1ccc(O)c(O)c1)C(=O)O` [l-dopa] showed a melting point of 277 °C.

`COC(=O)c1cccc([N+](=O)[O-])c1` [methyl_3-nitrobenzoate] showed a melting point of 80 °C.

`CC(=O)OC1CCC2(C)C(CC(=O)C3C4CCC(=O)C4(C)CCC32)C1` (centres undefined) [7,17-dioxoandrostan-3-yl acetate] came in with a melting point of 165 °C.

The compound `Cc1cccc(C)c1NC(=O)CN1CCN(CCCC(c2ccc(F)cc2)c2ccc(F)cc2)CC1` [lidoflazine] displayed a melting point of 159 °C.

Compound `CCCCCCCCCCC(=O)O` [Undecanoic acid] returned a melting point of 28.5 °C.

`OB(O)c1cc(C(F)(F)F)cc(C(F)(F)F)c1` [3,5-bis(trifluoromethyl)benzeneboronic acid] showed a melting point of 222 °C.

In turn, `ClC1C(Cl)C(Cl)C(Cl)C(Cl)C1Cl` (stereo not drawn) [alpha-hexachlorocyclohexane] gave a melting point of 160 °C.

Regarding `CC(C)(O)C(C)(C)O` [pinacol, anhydrous], the melting point was 44 °C.

In the case of `O=C(O)c1cc(O)ccc1O` [2,5-Dihydroxybenzoic acid], the melting point was determined as 206 °C.

The compound `OCc1ccccc1CO` [1,2-benzenedimethanol] yielded a melting point of 64 °C.

The compound `COc1ccccc1OC` [veratrole] came in with a melting point of 22 °C.

The compound `O=CC1CCCCC1` [cyclohexanecarbaldehyde] gave a melting point of 34.5 °C.

As for `CCCCCCCCCCCCO` [Dodecan-1-ol], the melting point is 24 °C.

The compound `CC(=O)O[C@H]1O[C@@H](COC(=O)c2ccccc2)[C@H](OC(=O)c2ccccc2)[C@@H]1OC(=O)c1ccccc1` [1-o-acetyl-2,3,5-tri-o-benzoyl-beta-D-ribofuranose] gave a melting point of 129 °C.

Regarding `O=[N+]([O-])c1c(Cl)c(Cl)c(Cl)c(Cl)c1Cl` [Pentachloronitrobenzene], the melting point came out at 144 °C.

`CCCCCCCCC(=O)O[C@H]1CC[C@@]2(C)C(=CC[C@H]3[C@@H]4CC[C@H]([C@H](C)CCCC(C)C)[C@@]4(C)CC[C@@H]32)C1` [cholesteryl nonanoate] yielded a melting point of 77 °C.

As to `O=C(O)CS(=O)(=O)c1ccccc1` [(phenylsulfonyl)acetic acid], the melting point is 112 °C.

As for `Cc1c(Cl)cccc1[N+](=O)[O-]` [2-chloro-6-nitrotoluene], the melting point came out at 36 °C.

On to `Clc1nc2ccccc2[nH]1` [2-chlorobenzimidazole], for which the melting point is 183 °C.

With `CC(C)Cc1ccc(C(C)C(=O)O)cc1` (centres undefined) [2-(4-Isobutylphenyl)propanoic acid], the melting point is 77.5 °C.

In turn, `NC(N)=Nc1nc(CSCCC(N)=NS(N)(=O)=O)cs1` [famotidine] registered a melting point of 163 °C.

On to `Cc1cc(/C=C2\S/C(=N\c3ccccc3)N(c3ccccc3)C2=O)c(C)n1-c1ccc(C(F)(F)F)cc1` [OSM-S-52], for which the melting point was 226 °C.

Turning to `O=C(O)C(=O)CBr` [bromopyruvic acid], the melting point came to 78 °C.

On to `Oc1ccccc1I` [2-iodophenol], for which the melting point is 43 °C and 38.5 °C.

As to `CCOC(C)OCC` [acetaldehyde diethyl acetal], the melting point is -100 °C.

As for `Oc1cccc2cccnc12` [Quinolin-8-ol], the melting point stood at 76 °C.

Compound `C#CCCCC` [1-hexyne] returned a melting point of -132 °C.

Compound `CC(C)(C)c1cc(O)c(C(C)(C)C)cc1O` [2,5-Di-tert-butylbenzene-1,4-diol] returned a melting point of 218 °C.

With `COC(=O)CCCCC(=O)OC` [Dimethyl adipate], the melting point was found to be 8 °C.

In turn, `Nc1ccc(S(=O)(=O)Nc2ncccn2)cc1` [sulfadiazine] had a melting point of 255 °C.

Take `NC(=S)c1ccccc1` [thiobenzamide]: the melting point was 116 °C.

Consider `CCCCC` [Pentane], for which the melting point is -130 °C.

On to `COC(=O)c1ccc(N(C)C)cc1` [methyl 4-dimethylaminobenzoate], for which the melting point was found to be 100 °C.

The compound `CC(C)(c1ccccc1)c1ccc(O)cc1` [4-cumylphenol] registered a melting point of 72 °C.

For the compound `Cc1cc[n+]([O-])cc1` [4-picoline-N-oxide], the melting point is 186 °C and 184 °C.

With `Cc1ccc(/C=C(\Oc2ccccc2)c2nc3ccccc3s2)cc1`, the melting point came to 163 °C.

Regarding `O=C(O)/C=C/c1ccccc1[N+](=O)[O-]` [trans-2-nitrocinnamic acid], the melting point is 247 °C.

On to `C1CO1` [Oxirane], for which the melting point was -111 °C.

`CCCOC(=O)C1=C(C)NC(C)=C(C(=O)OCCC)C1c1cccc(OC)c1O` came in with a melting point of 167 °C.

In turn, `Cc1ccc(C(=O)O)cc1Br` [3-bromo-4-methylbenzoic_acid] gave a melting point of 200 °C.

For the compound `Cc1ccc(O)c(C)c1` [2,4-dimethylphenol], the melting point was determined as 27 °C.

Consider `COS(C)(=O)=O` [Methyl methanesulfonate], for which the melting point is 20 °C.

Consider `OB(O)c1cccnc1OCc1ccccc1` [2-benzyloxypyridine-3-boronic acid], for which the melting point came out at 146 °C.

On to `ClC(c1ccccc1)c1ccccc1` [benzhydryl chloride], for which the melting point was 19 °C.

`O=C(Cl)CCl` [chloroacetyl chloride] displayed a melting point of -22 °C.

`COc1ccc2[nH]c(C)cc2c1` [5-methoxy-2-methylindole] returned a melting point of 87 °C.

In the case of `Nc1ccc(Cl)c([N+](=O)[O-])c1` [4-chloro-3-nitroaniline], the melting point came to 103 °C.

In the case of `Cc1cc(C)n(CN(CCO)Cn2nc(C)cc2C)n1` [2-{bis[(3,5-dimethyl-1H-pyrazol-1-yl)methyl]amino}ethanol], the melting point amounted to 83 °C.

Compound `ClC1=C(Cl)C2(Cl)C3C(Cl)C(Cl)CC3C1(Cl)C2(Cl)Cl` (stereo not drawn) [trans-Chlordane] yielded a melting point of 106 °C.

For the compound `COC(=O)c1ncoc1C(=O)OC` [dimethyl oxazole-4,5-dicarboxylate], the melting point is 75 °C.

For the compound `Cc1c[nH]c(=O)[nH]c1=O` [thymine], the melting point was 317 °C.

`CC(=O)OO` [Ethaneperoxoic acid] gave a melting point of 0.1 °C.

Take `CC[SiH2]CC` [diethylsilane]: the melting point is -132 °C.

As to `CCOS(=O)(=O)c1ccc(C)cc1` [ethyl_p-toluenesulfonate], the melting point stood at 34 °C.

Take `Oc1ccccc1` [phenol]: the melting point is 41 °C (3×) and 42 °C.

`CCOC(=O)c1ccc(OC)cc1` [ethyl 4-methoxybenzoate] returned a melting point of 8 °C.

Regarding `COc1ccc(C(=O)O)cc1OCc1ccccc1` [3-benzyloxy-4-methoxybenzoic acid], the melting point stood at 180 °C.

The compound `CC(C)c1ccc(C(=O)O)cc1` [4-isopropylbenzoic acid] returned a melting point of 119 °C.

As to `OB(O)c1cccc(Cl)c1` [3-chlorobenzeneboronic acid], the melting point stood at 183 °C.

The compound `N#Cc1ccccc1[N+](=O)[O-]` [2-nitrobenzonitrile] registered a melting point of 109 °C.

Take `CCCCC1CCCCC1` [Butylcyclohexane]: the melting point was -75 °C.

`Cc1cccc(C)c1N` [2,6-dimethylaniline] returned a melting point of 11 °C.

Consider `N#Cc1ccc(B(O)O)s1` [5-cyanothiophene-2-boronic acid], for which the melting point was found to be 127 °C.

`Oc1cccc(Cl)n1` [2-chloro-6-hydroxypyridine] displayed a melting point of 130 °C.

In turn, `O=Cc1ccc(C(F)(F)F)cc1` [4-(trifluoromethyl)benzaldehyde] displayed a melting point of 2 °C.

As to `Oc1ccccc1C=Nc1ccccc1` [salicylideneaniline], the melting point came out at 51 °C.

As to `Cc1nc(-c2cccnc2)sc1C(=O)O` [4-methyl-2-(3-pyridyl)thiazole-5-carboxylic acid], the melting point turned out to be 246 °C.

For `COc1ccc(C(=O)c2ccccc2Cl)cc1OC` [methanone, (2-chlorophenyl)(3,4-dimethoxyphenyl)-], the melting point is 126 °C.

As to `CC1(C(=O)OC2OC(CO)C(O)C(O)C2O)CCCC2(C)C3CCC4CC3(CCC12)CC4(CO)OC1OC(CO)C(O)C(O)C1O` (centres undefined), the melting point came out at 198 °C.

As to `O=C1C=CC(=O)C=C1` [p-benzoquinone], the melting point is 114 °C.

The compound `Clc1ccc(Cl)cc1` [1,4-Dichlorobenzene] yielded a melting point of 55 °C.

`CC(C)(C)OC(=O)N[C@@H](Cc1ccccc1)C(=O)O` [boc-phenylalanine] had a melting point of 87 °C.

In the case of `COc1ccc2c(c1)c(CC(=O)O)c(C)n2C(=O)c1ccc(Cl)cc1` [indomethacin], the melting point is 159 °C and 160 °C.

In turn, `Cc1ccc(B(O)O)cc1F` [3-fluoro-4-methylbenzeneboronic acid] displayed a melting point of 234 °C.

For the compound `C#CCCCCCCC` [1-nonyne], the melting point is -50 °C.

For the compound `O=C(O)c1cc(F)nc(F)c1F` [2,3,6-trifluoropyridine-4-carboxylic acid], the melting point stood at 120 °C.

Take `O=C(O)CCSc1ccc2ccccc2c1` [3-(2-naphthylthio)propionic acid]: the melting point was determined as 105 °C.

`CC1(C)OC(=O)C(=Cc2ccc(-c3ccccc3)o2)C(=O)O1` registered a melting point of 143 °C.

In the case of `BrCCOc1ccccc1` [2-phenoxyethyl bromide], the melting point is 33 °C.

Compound `O=C(O)[C@@H]1C[C@@H]2C[C@H]1[C@@H](O)C2` returned a melting point of 161 °C.

In turn, `OCC(CO)(CO)CO` [Pentaerythritol] displayed a melting point of 260 °C.

`NCCc1ccccc1` [2-phenylethylamine] registered a melting point of -60 °C.

`CC1=NN(c2ccccc2)C(=O)/C1=C/c1ccccc1O` gave a melting point of 154 °C.

`CC(=O)Nc1ccccc1/C=C/c1ccccc1` [N-{2-[(E)-2-phenylethenyl]phenyl}acetamide] had a melting point of 113 °C.

In turn, `COCC(=O)N(c1c(C)cccc1C)C(C)C(=O)OC` (centres undefined) [metalaxyl] came in with a melting point of 72 °C.
